In patent US20110065582A1, “ENVIRONMENTALLY FRIENDLY SLOW-RELEASE PESTICIDE FORMULATIONS” (Consejo Superior De Investigaciones Cientificas, priority 2008, published 2011):

What was measured:
[1] = 96 h of irradiation; cited from earlier work
[2] = Adsorption of sulfentrazone in PC vesicle-montmorillonite suspension as a function of buffer pH; type: physicochemical; settings: 5 g/L montmorillonite, 6 mM PC, 2.6 mM SFZ
Description: The formulations of PC with different herbicides were prepared by dissolving various quantities of the herbicide in question in a solution of 6 mM PC through sonication, and subsequent adding of montmorillonite. The herbicides employed were alachlor (hydrophobic in nature), atrazine (of basic nature) and sulfentrazone (of acid nature). […] The added amounts of the herbicides were 1.5-14 mM for alachlor, 1.8-2.4 mM for atrazine and 1.3-5.7 mM for sulfentrazone. The clay concentration was 1.6, 5 or 10 g/L. Following agitation during 24 h the suspensions were centrifuged at 20000 g during 10 min, the remaining herbicide in the supernatants was analysed, and the precipitates were lyophilised giving rise to the formulations. The herbicides were analysed by HPLC (Shimadzu Model 10A) fitted with a PDA detector. The reverse phase column was a Kromasil 100 C18 of 15 cm. The flow speed was 1.0 mL min−1. […]
The final concentrations of the formulations and the percentage in weight of the herbicides in the formulation are shown in Table 2. […] The active ingredient content was determined by means of sonication of 5 mg of each formulation in 20 ml of methanol. The suspensions were centrifuged and the herbicide in the supernatants was analysed. […]

[3] = Speciation of SFZ in solution; type: physicochemical
From the text: A primordial factor in the encapsulation of acidic molecules is the pH of the solution. […] However, small anionic species can also permeabilise the bilayers of PC. In fact, SFZ adsorption at pH 7.0 was 4 times higher than the amount of neutral species in solution.

Row | Structure (SMILES) | activity retained following irradiation [1] | adsorption of SFZ ([2]; buffer of pH 5.0) | adsorption of SFZ ([2]; buffer of pH 7.0 Trizma-HCl 1 M) | speciation in solution: anions ([3]; pH 5.0) | speciation in solution: neutral molecules ([3]; pH 5.0) | speciation in solution: anionic species ([3]; pH 7.0) | speciation in solution: neutrals ([3]; pH 7.0)
1 | CCCN(CCC)c1c([N+](=O)[O-])cc(C(F)(F)F)cc1[N+](=O)[O-] [free trifluralin, trifluralin] | 30% |  |  |  |  |  | 
2 | Cc1nn(-c2cc(NS(C)(=O)=O)c(Cl)cc2Cl)c(=O)n1C(F)F [SFZ, sulfentrazone] |  | 69.5% | 11.8% | 2.7% | 97.3% | 73.4% | 26.6%
